Assay results reported in patent US20090232735A1, “USE OF FRUCTOSE-BASED THERAPIES FOR THE TREATMENT OF CANCER” (CEDARS-SINAI MEDICAL CENTER, priority 2005, published 2009).

What was measured:
GLUT-5 mRNA = GLUT-5 mRNA by real-time RT-PCR in PANC-1 cells; assay type: cell-based, human
Experimental: FIG. 22 depicts […] mRNA levels in pancreatic cancer cells in accordance with an embodiment of the present invention. Quantitative real-time RT-PCR was used to measure GLUT-5 mRNA levels in pancreatic cancer cells (PANC-1), following culture in 2 mM glucose, 5.5 mM glucose, or 5.5 mM fructose for 4 h and 24 h.
Brit J Biomed Sci 56(4): 285-292, 1999; Rogers S, Docherty S E, Slavin J L, Henderson and Best J D. Differential expression of GLUT12 in breast cancer and normal breast tissue. Cancer Letters 193(2): 225-233, 2003). […] Teal-time RT-PCR was used to measure GLUT-5 mRNA expression following 2 mM, and 5.5 mM glucose-, and 5.5 mM fructose-treatment for 4 h, and 24 h respectively. GLUT-5 mRNA was expressed as the fold-change relative to GLUT-5 mRNA levels in 2 mM glucose-treated cells. As depicted in FIG. 22, at 4 h, GLUT-5 mRNA levels were low in both the 5.5 mM glucose-, and fructose-treated PANC-1 cells. […] This agrees with other studies which have reported fructose-induced GLUT-5 mRNA expression in colon cancer (Gouyon F, Onesto C, Dalet V, Pages G, Leturque A, and Brot-Laroche E. Fructose modulates GLUT5 mRNA stability in differentiated Caco-2 cells: Role of cAMP-signalling pathway and PABP (polyadenylated-binding protein)-interacting protein (Paip) 2. J Biochem 375:167-174, 2003).

[1] = tested on: PANC-1 pancreatic cancer cells; test: FACS cell cycle profile of PANC-1 cells; assay type: cell-based, human; conditions: PANC-1, 5.5 mM sugar, 48 h
Experimental: FIG. 15 depicts in the G0/G1 phase and the DNA synthesis (S) phase of pancreatic cells in glucose and fructose in accordance with an embodiment of the present invention. PANC-1 cells were plated in 2, and 5.5 mM glucose or 5.5 mM fructose for 48 h, after which cells were fixed in methanol, nuclei were stained with propidium iodide, and aliquots subjected to FACS analyzes.
This first result intrigued the inventors, but given there is little documentation regarding physiological fructose concentrations, the inventors first considered that the “apparent” pro-proliferative effects of fructose were simply a consequence of the highly stylized in vitro experimental conditions, and that if the pancreatic cancer cells were cultured in higher glucose concentrations, this would result in similar proliferative rates to those the inventors observed following culture in 5.5 mM fructose. Therefore, in the next experiments, the inventors compared proliferative rates of the PANC-1 pancreatic cancer cells following culture for 72 h in a range of fructose, and glucose concentrations (2-25 mM). This timepoint was chosen as the inventors had seen maximal pancreatic cancer cell proliferation in 5.5 mM fructose at 72 h. […] While not wishing to be bound by any particular theory, the inventors believe that this latter finding may be because the PANC-1 cells are proliferating at close to maximal capacity by 72 h, once they are exposed to comparatively low fructose concentrations (5 mM). MTS assay was employed to measure pancreatic cancer cell proliferative rates, which utilizes mitochondrial oxidation to quantify cell proliferation. As the inventors were examining carbohydrate-mediated effects, the inventors considered the change observed in proliferative rates, as measured by this assay, simply reflected changes in mitochondrial oxidation. Therefore, two additional methods were utilized to examine proliferative rates following fructose-treatment. […]

O=C(CO)[C@@H](O)[C@H](O)[C@H](O)CO [fructose]
GLUT-5 mRNA levels higher than in 2 mM glucose-treated cells (GLUT-5 mRNA; PANC-1, 5.5 mM fructose, 24 h): 1.5 fold | GLUT-5 mRNA levels higher than in 5.5 mM glucose-treated cells (GLUT-5 mRNA; PANC-1, 5.5 mM fructose, 24 h): 1.75 fold | GLUT-5 mRNA levels (GLUT-5 mRNA; PANC-1, 5.5 mM sugar, 4 h): low | increase of cells in S-phase in comparison to 2 mM glucose [1]: ~17% | percentage of cells in S-phase [1]: 47% | percentage of cells in resting G0/G1 [1]: 21.2%
